According to patent US12187723B2 (BRISTOL-MYERS SQUIBB COMPANY, priority 2019, dated 2025):

Target: T1, human TLR7 (Homo sapiens, UniProt Q9NYK1)
T1 construct: host or cells: HEK-Blue cells
T1 sequence (Q9NYK1 27-1049): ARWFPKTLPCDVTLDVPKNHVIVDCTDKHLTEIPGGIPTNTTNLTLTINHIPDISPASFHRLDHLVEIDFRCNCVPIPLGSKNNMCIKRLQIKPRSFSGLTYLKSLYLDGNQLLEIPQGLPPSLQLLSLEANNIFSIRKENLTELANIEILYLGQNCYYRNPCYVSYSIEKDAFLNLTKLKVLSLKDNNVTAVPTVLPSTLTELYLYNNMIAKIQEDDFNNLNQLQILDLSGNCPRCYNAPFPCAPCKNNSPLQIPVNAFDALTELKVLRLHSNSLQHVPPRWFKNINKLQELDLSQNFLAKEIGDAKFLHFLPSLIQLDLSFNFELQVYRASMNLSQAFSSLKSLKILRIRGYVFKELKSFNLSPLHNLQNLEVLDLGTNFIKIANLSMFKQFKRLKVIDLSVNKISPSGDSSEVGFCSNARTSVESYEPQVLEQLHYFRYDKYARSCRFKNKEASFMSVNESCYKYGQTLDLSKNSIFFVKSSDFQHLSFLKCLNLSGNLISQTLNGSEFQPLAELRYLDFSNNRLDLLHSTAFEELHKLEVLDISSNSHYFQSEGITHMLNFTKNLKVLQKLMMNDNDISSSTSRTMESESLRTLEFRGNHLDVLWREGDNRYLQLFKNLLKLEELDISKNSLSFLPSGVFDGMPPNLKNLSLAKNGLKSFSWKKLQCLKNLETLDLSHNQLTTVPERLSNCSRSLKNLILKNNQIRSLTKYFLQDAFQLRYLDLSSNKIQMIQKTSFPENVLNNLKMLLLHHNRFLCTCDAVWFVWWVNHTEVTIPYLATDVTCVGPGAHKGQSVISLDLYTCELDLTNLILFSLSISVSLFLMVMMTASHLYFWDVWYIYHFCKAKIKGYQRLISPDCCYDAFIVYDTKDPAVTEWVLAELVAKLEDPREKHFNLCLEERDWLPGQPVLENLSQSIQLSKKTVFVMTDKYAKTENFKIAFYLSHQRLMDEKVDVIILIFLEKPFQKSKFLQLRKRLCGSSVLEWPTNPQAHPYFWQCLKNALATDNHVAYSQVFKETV
Experiment: TLR7 inhibition reporter assay (HEK-Blue SEAP)
Type: cell-based
Conditions: HEK-Blue cells overexpressing human TLR7, gardiquimod 7.5 μM, 22 hour incubation
Method in brief: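 Dose-response testing from 0.05 nM to 50 μM final was done on reporter cells for 22 hours at 37° C. Secreted SEAP was then detected, and inhibition was calculated as percent reduction of the agonist-plus-DMSO signal compared with wells given a known inhibitor.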

Row | Compound | IC50 [nM]
1 | COc1c(C)c(-c2cc3[nH]c(=O)n(C4CCC(NCC5(S(C)(=O)=O)CC5)CC4)c3cc2C(C)C)cn2ncnc12 (single isomer, unassigned) [Example 260] | 41.5
2 | COc1cc(-c2ccc3c(c2)[nH]c(=O)n3C2CCNCC2)cn2ncnc12 [1 EI, 5-(8-methoxy-[1,2,4]triazolo[1,5-a]pyridin-6-yl)-1-(piperidin-4-yl)-1,3-dihydro-2H-benzo[d]imidazol-2-one] | > 3130
3 | Cc1c(-c2cc3[nH]c(=O)n(C4CCC(N5CC6(COC6)C5)CC4)c3cc2C(C)C)cn2ncnc2c1C (single isomer, unassigned) [Example 281, 1-(4-(2-oxa-6-azaspiro[3.3]heptan-6-yl)cyclohexyl)-5-(7,8-dimethyl-[1,2,4]triazolo[1,5-a]pyridin-6-yl)-6-isopropyl-1,3-dihydro-2H-benzo[d]imidazol-2-one] | 12.4
4 | COc1c(C)c(-c2cc3[nH]c(=O)n(C4CCC(N5CC(OC)C5)CC4)c3cc2C(C)C)cn2ncnc12 (stereo not drawn) [Example 265, 6-isopropyl-5-(8-methoxy-7-methyl-[1,2,4]triazolo[1,5-a]pyridin-6-yl)-1-(4-(3-methoxyazetidin-1-yl)cyclohexyl)-1,3-dihydro-2H-benzo[d]imidazol-2-one] | 7.18
5 | COc1cc(-c2cc3[nH]c(=O)n(C4CCC(N5CCC(OC)C5)CC4)c3cc2C(C)C)cn2ncnc12 (stereo not drawn) [Example 284, 6-isopropyl-5-(8-methoxy-[1,2,4]triazolo[1,5-a]pyridin-6-yl)-1-(4-(3-methoxypyrrolidin-1-yl)cyclohexyl)-1,3-dihydro-2H-benzo[d]imidazol-2-one] | 0.7
6 | Cc1c(-c2cc3[nH]c(=O)n(C4CCC(N5CCCOCC5)CC4)c3cc2C(C)C)cn2ncnc2c1C (stereo not drawn) [Example 271, 1-(4-(1,4-oxazepan-4-yl)cyclohexyl)-5-(7,8-dimethyl-[1,2,4]triazolo[1,5-a]pyridin-6-yl)-6-isopropyl-1,3-dihydro-2H-benzo[d]imidazol-2-one] | 6.06
7 | Cc1cc2c(cc1-c1cc(C)c3ncnn3c1)[nH]c(=O)n2[C@H]1CC[C@@H](NC2CCOCC2)CC1 [Example 30, 6-methyl-5-(8-methyl-[1,2,4]triazolo[1,5-a]pyridin-6-yl)-1-((1s,4s)-4-((tetrahydro-2H-pyran-4-yl)amino)cyclohexyl)-1,3-dihydro-2H-benzo[d]imidazol-2-one] | 8.23
8 | COc1cc(-c2cc3[nH]c(=O)n(C4CCC(N5CC[C@H](F)C5)CC4)c3cc2C(C)C)cn2ncnc12 (stereo partly drawn) [Example 287, (S)-1-(4-(3-fluoropyrrolidin-1-yl)cyclohexyl)-6-isopropyl-5-(8-methoxy-[1,2,4]triazolo[1,5-a]pyridin-6-yl)-1,3-dihydro-2H-benzo[d]imidazol-2-one] | 1.53
9 | Cc1c(-c2cc3[nH]c(=O)n(C4CCC(N5CCC(F)(F)CC5)CC4)c3cc2C(C)C)cn2ncnc2c1C (single isomer, unassigned) [Example 275, 1-(4-(4,4-difluoropiperidin-1-yl)cyclohexyl)-5-(7,8-dimethyl-[1,2,4]triazolo[1,5-a]pyridin-6-yl)-6-isopropyl-1,3-dihydro-2H-benzo[d]imidazol-2-one] | 13.7
10 | COc1cc(-c2cc3[nH]c(=O)n(C4CCC(N5CCC(F)(F)CC5)CC4)c3cc2C(C)C)cn2ncnc12 (single isomer, unassigned) [Example 247, 1-(4-(4,4-difluoropiperidin-1-yl)cyclohexyl)-6-isopropyl-5-(8-methoxy-[1,2,4]triazolo[1,5-a]pyridin-6-yl)-1,3-dihydro-2H-benzo[d]imidazol-2-one] | 30.2
11 | COc1c(C)c(-c2cc3[nH]c(=O)n(C4CCC(N5CC(F)C5)CC4)c3cc2C(C)C)cn2ncnc12 (single isomer, unassigned) [Example 263, 1-(4-(3-fluoroazetidin-1-yl)cyclohexyl)-6-isopropyl-5-(8-methoxy-7-methyl-[1,2,4]triazolo[1,5-a]pyridin-6-yl)-1,3-dihydro-2H-benzo[d]imidazol-2-one] | 7.93
12 | Cc1cc2c(cc1-c1cc(C)c3ncnn3c1)[nH]c(=O)n2[C@@H]1CCCN(C2COC2)C1 [Example 18, (R)-6-methyl-5-(8-methyl-[1,2,4]triazolo[1,5-a]pyridin-6-yl)-1-(1-(oxetan-3-yl)piperidin-3-yl)-1,3-dihydro-2H-benzo[d]imidazol-2-one] | 409
13 | Cc1c(-c2cc3[nH]c(=O)n(C4CCC(N5CC(F)C5)CC4)c3cc2C(C)C)cn2ncnc2c1C (stereo not drawn) [Example 279, 5-(7,8-dimethyl-[1,2,4]triazolo[1,5-a]pyridin-6-yl)-1-(4-(3-fluoroazetidin-1-yl)cyclohexyl)-6-isopropyl-1,3-dihydro-2H-benzo[d]imidazol-2-one] | 2.89
14 | COC1CN(C2CCC(n3c(=O)[nH]c4cc(-c5cn6ncnc6c(C)c5C)c(C(C)C)cc43)CC2)C1 (single isomer, unassigned) [Example 278, 5-(7,8-dimethyl-[1,2,4]triazolo[1,5-a]pyridin-6-yl)-6-isopropyl-1-(4-(3-methoxyazetidin-1-yl)cyclohexyl)-1,3-dihydro-2H-benzo[d]imidazol-2-one] | 7.88
15 | COc1c(C)c(-c2cc3[nH]c(=O)n(C4CCC(N5CC(F)C5)CC4)c3cc2C(C)C)cn2ncnc12 (single isomer, unassigned) [Example 264, 1-(4-(3-fluoroazetidin-1-yl)cyclohexyl)-6-isopropyl-5-(8-methoxy-7-methyl-[1,2,4]triazolo[1,5-a]pyridin-6-yl)-1,3-dihydro-2H-benzo[d]imidazol-2-one] | 28.4
16 | Cc1cc2c(cc1-c1cc(C)c3ncnn3c1)[nH]c(=O)n2[C@H]1CC[C@@H](N(C)C)CC1 [Example 19, 1-((1s,4s)-4-(dimethylamino)cyclohexyl)-6-methyl-5-(8-methyl-[1,2,4]triazolo[1,5-a]pyridin-6-yl)-1,3-dihydro-2H-benzo[d]imidazol-2-one] | 21.3
17 | COC[C@@H]1CCN(C2CCC(n3c(=O)[nH]c4cc(-c5cc(OC)c6ncnn6c5)c(C(C)C)cc43)CC2)C1 (single isomer, unassigned) [Example 291] | 1.71
18 | Cc1c(-c2cc3[nH]c(=O)n(C4CCC(N5CC6(COC6)C5)CC4)c3cc2C(C)C)cn2ncnc2c1C (single isomer, unassigned) [Example 298] | 16.5
19 | COc1cc(-c2cc3[nH]c(=O)n(C4CCC(N5C[C@@H](F)[C@@H](F)C5)CC4)c3cc2C(C)C)cn2ncnc12 (single isomer, unassigned) [Example 292] | 2.21
20 | Cc1cc2c(cc1-c1cc(C)c3ncnn3c1)[nH]c(=O)n2[C@H]1CC[C@H](N)CC1 [1 EF, 1-((1r,4r)-4-aminocyclohexyl)-6-methyl-5-(8-methyl-[1,2,4]triazolo[1,5-a]pyridin-6-yl)-1,3-dihydro-2H-benzo[d]imidazol-2-one] | 40.7
21 | COc1c(C)c(-c2cc3[nH]c(=O)n(C4CCC(N5CC6(COC6)C5)CC4)c3cc2C(C)C)cn2ncnc12 (single isomer, unassigned) [Example 269, 1-(4-(2-oxa-6-azaspiro[3.3]heptan-6-yl)cyclohexyl)-6-isopropyl-5-(8-methoxy-7-methyl-[1,2,4]triazolo[1,5-a]pyridin-6-yl)-1,3-dihydro-2H-benzo[d]imidazol-2-one] | 5.73
22 | COc1cc(-c2cc3[nH]c(=O)n(C4CCC(N5CCC(OC)C5)CC4)c3cc2C(C)C)cn2ncnc12 (stereo not drawn) [Example 285, 6-isopropyl-5-(8-methoxy-[1,2,4]triazolo[1,5-a]pyridin-6-yl)-1-(4-(3-methoxypyrrolidin-1-yl)cyclohexyl)-1,3-dihydro-2H-benzo[d]imidazol-2-one] | 0.66
23 | COc1cc(-c2cc3[nH]c(=O)n(C4CCC(N5CCC(F)(F)C5)CC4)c3cc2C(C)C)cn2ncnc12 (single isomer, unassigned) [Example 295, 1-(4-(3,3-difluoropyrrolidin-1-yl)cyclohexyl)-6-isopropyl-5-(8-methoxy-[1,2,4]triazolo[1,5-a]pyridin-6-yl)-1,3-dihydro-2H-benzo[d]imidazol-2-one] | 41.8
24 | COC1CN(C2CCC(n3c(=O)[nH]c4cc(-c5cn6ncnc6c(C)c5C)c(C(C)C)cc43)CC2)C1 (single isomer, unassigned) [Example 277, 5-(7,8-dimethyl-[1,2,4]triazolo[1,5-a]pyridin-6-yl)-6-isopropyl-1-(4-(3-methoxyazetidin-1-yl)cyclohexyl)-1,3-dihydro-2H-benzo[d]imidazol-2-one] | 2.39
